In US6573050B1, “Treatment, diagnosis and evaluation of anti-cancer therapy resistance in melanoma” (Sunnybrook & Women's College Health Sciences Centre, priority 1999, dated 2003):
Read-outs that look alike come from different tables or passages of the source.

Legend:
WM1341B cells = experiment: MTS cytotoxicity assay, CDDP treatment; assay type: cell-based, human; details: 15 μM CDDP, 24 hours, MTS assay (FIG. 9)
Method: (§1) Cells and Culture Conditions. All human melanoma cell lines were generously provided by Dr. Meenhard Herlyn (Wistar Institute, Philadelphia, Pa.). The CDDP-resistant variants of WM35 (designated as Clone A to Clone I) were established by retroviral insertioual mutagenesis of WM35 cells as described previously (Lu et al. (1995) Cancer Res. 55:1139-1145). Cells were routinely maintained in RPMI 1640 (Life Technologies) supplement with 5% FBS (Life Technologies) at 37° C. in a humidified atmosphere of 95% air; 5% CO2.
(§2) FIG. 9 illustrates the response of melanoma cell lines to CDDP treatment. Each of the cell lines indicated were plated in 96-well plates at a density of 1×10^5 cells/well and treated with 15 μM CDDP for 24 hours. Percentage of viable cells were determined by the MTS assay. […] The levels TYRP2 expression in these cells directly correlated with their resistance to CDDP treatment (15 μM CDDP, 24 hours). For example, the cell line WM9, which expresses very low levels of TYRP2 was very sensitive to CDDP treatment (<20% of cells survived). Conversely, the cell lines WM451 and MeWo, for example, which express high levels of TYRP2 were resistant to CDDP treatment (approximately 80% of cells survived).

WM373 cells = experiment: MTS cytotoxicity assay, CDDP treatment; assay type: cell-based, human; details: 15 μM CDDP, 24 hours, MTS assay (FIG. 9)
Method: as §1, §2

WM451 cells = experiment: MTS cytotoxicity assay, CDDP treatment; assay type: cell-based, human; details: 15 μM CDDP, 24 hours, MTS assay (FIG. 9)
Method: as §1, §2

1552C cells = experiment: MTS cytotoxicity assay, CDDP treatment; assay type: cell-based, human; details: 15 μM CDDP, 24 hours, MTS assay (FIG. 9)
Method: as §1, §2

[1] = system: WM35 cells vs Clone E cells; experiment: DNA fragmentation assay, Cell Death Detection ELISA; assay type: cell-based, human; details: 15 μM CDDP, 18 hours
Method: DNA Fragmentation Assay. Levels of apoptosis were determined by quantifying DNA fragmentation using the Cell Death Detection ELISA Plus kit (Boehringer Mannheim). Briefly, cells were plated in 96-well plates at a density of 1×10^4 cells/well and allowed to attach overnight. Cells were treated with 15 μM CDDP for 18 hours and then lysed. Cell lysates were transferred to streptavidin-coated plates and used for ELISA analysis using anti-bistone-biotin and anti-DNA POD antibodies.
FIG. 2 illustrates DNA fragmentation analysis by ELISA using antibodies that recognize mono- and oligonucleotide fragments. Mono- and oligo-nucleosomes in the DNA of WM35 cells treated with 15 μM CDDP for 18 hours, were detected with a Cell Death ELISA Detection Kit (Boehringer Mannheim). The production of DNA 180 bp multimers was approximately 5 times greater in WM35 cells than in Clone E cells.

[2] = system: XR9 cells (x-ray resistant variant of WM35); experiment: MTS cytotoxicity assay, CDDP treatment; assay type: cell-based, human; details: 15 μM CDDP, 24 hour incubation, mean ± SEM, n=3
Method: Gamma radiation resistant mutant cell lines were selected using retroviral insertional mutagenesis, with selection based on resistance to gamma radition. X-ray resistant mutant cell lines, designated as “XR” were established.
(§3) To determine the correlation between levels of TYRP2 expression and CDDP resistance, the cells assessed in the UV(B) survival assay as shown in Table 2 were further assessed for resistance to CDDP. Cells were plated in 96-well plates and treated with 15 μM CDDP. After a 24 hour incubation, cell viability was determined by the MTS assay.

MeWo derived tumors = experiment: MeWo tumors in immunodeficient CD-1 nude mice, CDDP treatment; assay type: in vivo; details: CDDP 2 mg/kg/2 days
Method: (§4) In order to determine the significance of TYRP2-mediated CDDP resistance in vivo, tumors were generated in immunodeficient CD-1 mice by subcutaneous injection of 2×10^6 cells of either MeWo or WM9. WM35 cells were not used for in vivo studies because they lack tumorigenicity (Bani et al. (1996) Cancer Res. 56:3075-3086). […] Mice bearing these tumors were treated with CDDP three times weekly at a dose of 2 mg/kg.
FIG. 12 illustrates the correlation between TYRP2 expression and CDDP resistance in vivo. Tumors were generated in immunodeficient CD-1 nude mice by subdermally injecting MeWo cells.

[3] = system: Clone E and Clone G cells vs WM35 cells; experiment: CDDP resistance of retrovirally derived clones compared to parental WM35; assay type: cell-based, human; details: approximately
Method: as §1
This technique of retroviral insertional mutagenesis was applied on WM35 cells, an early stage CDDP sensitive human melanoma cell line. WM35 cells were infected with a replication defective amphotrophic murine stein cell virus (MSCV) retrovirus and the pooled cells were subsequently selected for CDDP resistance.
From this technique, nine independently derived clones, Clone A to Clone I, were obtained. […] Since changes in tumor sensitivities in the range of 2-5 fold can account for loss of tumor responsiveness to anti-cancer therapeutic drugs, this difference could be clinically significant (Kuroda et al. (1991) Int. J. Cancer 47:732-737).

WM35 cells [4] = experiment: PARP cleavage, Western blot (apoptosis); assay type: cell-based, human; details: 15 μM CDDP, as early as
Method: (§5) SDS-PAGE and Western Blot Analysis. Cell lysates were prepared using lysis buffer consisting of 50 mM Tris, pH 7.4, 50 mM NaCl, 2 mM MgCl2, 1 mM EDTA, 05% IDEPAL CA-630 and protease inhibitors (0.1 mM PMSF, 100 μM sodium vanadate, 20 μg/ml leupeptin, 20 mM […], 1 mM benzamide). Protein concentrations were determined by the Bradford assay (BioRad Laboratories) and equivalent quantities of protein (25 μg) were resolved by SDS-polyacrylamide gel electrophoresis (Laemmli (1970) Nature, 227, 680-685). […] Membranes were then incubated with a horseradish-peroxidase conjugated goat anti-rabbit antibody (1:5000 dilution) and immunoreactive sites were detected by enhanced chemiluminescence (Amersham). […]
(§6) The mechanism of action of CDDP, as well as other DNA alkylating agents ultimately involves generation of DNA damage and subsequently the induction of apoptosis. In order to determine if the increased resistance to CDDP in the retrovirally derived clones was associated with a reduction in CDDP-induced apoptosis, the levels of apoptosis in one of these clones (Clone E) relative to its parental WM35 cells were determined following treatment with 15 μM CDDP.
(§7) Increased cleavage of poly-ADP-ribose-polymerase (PARP) from the 116 kDa to the smaller 84 kDa subunit in WM35 cells was detected as early as 6 bours following 15 μM CDDP treatment. […]

Clone E cells = experiment: PARP cleavage, Western blot (apoptosis); assay type: cell-based, human; details: 15 μM CDDP, up to 24 hours
Method: as §5, §6, §7

WM9 derived tumors = experiment: WM9 tumors in immunodeficient CD-1 nude mice, CDDP treatment; assay type: in vivo; details: CDDP 2 mg/kg/2 days
Method: as §4
FIG. 13 illustrates the correlation between TYRP2 expression and CDDP resistance in vivo in WM9 cells. Tumors were generated in immunodeficient CD-1 nude mice by subdermally injecting WM9 cells. […] By day 18 of treatment, the tumors in 2 of 5 mice had completely disappeared.

WM9 cells = experiment: MTS cytotoxicity assay, CDDP treatment; assay type: cell-based, human; details: 15 μM CDDP
Method: as §1, §2, §3

MeWo cells = experiment: MTS cytotoxicity assay, CDDP treatment; assay type: cell-based, human; details: 15 μM CDDP
Method: as §1, §2, §3

[5] = system: Clone E cells (CDDP-resistant variant of WM35); experiment: MTS cytotoxicity assay, CDDP treatment; assay type: cell-based, human; details: 15 μM CDDP
Method: as §1, §2, §3

WM35 cells [6] = experiment: MTS cytotoxicity assay, CDDP treatment; assay type: cell-based, human; details: 15 μM CDDP, 24 hour incubation, mean ± SEM, n=3
Method: as §1, §3

[7] = system: Clone E and Clone G cells vs WM35 cells; experiment: Cross resistance of CDDP-resistant clones, MTS assay; details: 24 hours treatment, various concentrations, MTS assay (FIG. 3)
Method: (§8) Cytotoxicity Assay. The number of viable cells following a treatment was assessed using the CellTiter™ 96 Aqueous Non-Radioactive MTS Cell Proliferation Assay (Promega). Briefly, 1×10^4 cells/well were plated in 96-well plates, allowed to attach overnight and then administered therapeutic agents at various levels for 24 hours. Four hours prior to harvest, MTS/phenazine methosulfate was added to the cells and the number of variable cells was determined by measuring the quantity of formazan by spectrophotometric analysis at 490 nm.
(§9) The indicated cell lines were cultured in 96 well plates at a density of 8×10^3 cells per well and treated for 24 hours with either A) carboplatin; B) taxol; or C) methotrexate, at the indicated concentrations. Cell viabilities were determined using the MTS assay (Promega), measuring the cellular conversion of the tetrazolium salt, MTS, into formula which can be quantified at 490 nm.

[8] = system: Clone E and Clone G cells vs WM35 cells
Method: as §8, §9

[9] = 24 hour incubation, MTS assay, mean ± SEM, n=3

N.N.[Cl][Pt][Cl] [CDDP, cis-diamminedichloroplatinum(II)]
survival compared to WM35 cells (WM1341B cells): substantially higher survival | survival compared to WM35 cells (WM373 cells): substantially higher survival | % of cells survived (WM451 cells): approximately 80% | sensitivity to CDDP treatment (1552C cells): highly sensitive | production of DNA 180 bp multimers, WM35 cells relative to Clone E cells [1]: approximately 5 times | % Survival [2]: 82.4 ± 1.7% | growth rates of tumors, CDDP treated vs saline treated mice (MeWo derived tumors): did not differ | increase in CDDP resistance compared to parental WM35 cells [3]: 2 to 3 fold | time at which increased PARP cleavage (116 kDa to 84 kDa subunit) was detected (WM35 cells [4]): 6 bours | increased levels of PARP cleavage (Clone E cells): not evident | growth rates of tumors relative to saline treated controls (WM9 derived tumors): significant reduction in growth rates | mice whose tumors had completely disappeared (WM9 derived tumors; by day 18 of treatment): 2 of 5 | % Survival (WM9 cells; [9]): 13.8 ± 1.6% | % of cells survived (WM9 cells; 24 hours, MTS assay (FIG. 9)): < 20% | % Survival (MeWo cells; [9]): 77.0 ± 5.3% | % of cells survived (MeWo cells; 24 hours, MTS assay (FIG. 9)): approximately 80% | % Survival [5, 9]: 77.4 ± 6.7% | survival compared to WM35 cells ([5]; 24 hours, MTS assay (FIG. 9)): substantially higher survival | % Survival (WM35 cells [6]): 52.6 ± 4.4%

N.N.O=C([O-])C1(C(=O)[O-])CCC1.[Pt+2] [carboplatin]
resistance of Clone E and Clone G to cytotoxic effects compared to WM35 cells [7]: more resistant

CN(Cc1cnc2nc(N)nc(N)c2n1)c1ccc(C(=O)N[C@@H](CCC(=O)O)C(=O)O)cc1 [methotrexate]
resistance of Clone E and Clone G to cytotoxic effects compared to WM35 cells [8]: more resistant

CC(=O)O[C@H]1C(=O)[C@@]2(C)[C@H]([C@H](OC(=O)c3ccccc3)[C@]3(O)C[C@H](OC(=O)[C@H](O)[C@@H](NC(=O)c4ccccc4)c4ccccc4)C(C)=C1C3(C)C)[C@]1(OC(C)=O)CO[C@@H]1C[C@@H]2O [taxol]
resistance of Clone E and Clone G to cytotoxic effects compared to WM35 cells [8]: equally sensitive
